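How tested: cells in 96-well plates exposed to compound for 48 hours at five concentrations. The concentration for full growth arrest is given as TGI.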
Columns and labels:
Assay in all cases: NCI anticancer screen, dose series, 48 h
SK-OV-3 ovarian = system: SK-OV-3 ovarian
A549 NSCLC = system: A549 NSCLC
OVCAR-8 ovarian = system: OVCAR-8 ovarian
SK-MEL-2 melanoma = system: SK-MEL-2 melanoma
HCT-15 colon = system: HCT-15 colon
MDA-MB-435 = system: MDA-MB-435
SF-539 CNS = system: SF-539 CNS
MALME-3M melanoma = system: MALME-3M melanoma
SK-MEL-5 melanoma = system: SK-MEL-5 melanoma
DU-145 prostate = system: DU-145 prostate
KM12 colon = system: KM12 colon
MOLT-4 leukemia = system: MOLT-4 leukemia
UACC-257 melanoma = system: UACC-257 melanoma
CCRF-CEM leukemia = system: CCRF-CEM leukemia
NCI/ADR-RES ovarian = system: NCI/ADR-RES ovarian
SN12C renal = system: SN12C renal
NCI-H460 lung = system: NCI-H460 lung
SNB-19 CNS = system: SNB-19 CNS
SF-268 CNS = system: SF-268 CNS
HS 578T breast = system: HS 578T breast
SW-620 colon = system: SW-620 colon
HCT-116 colon = system: HCT-116 colon
A498 renal = system: A498 renal
HT29 colon = system: HT29 colon
PC-3 prostate = system: PC-3 prostate
OVCAR-5 ovarian = system: OVCAR-5 ovarian
HL-60(TB) leukemia = system: HL-60(TB) leukemia
IGROV1 ovarian = system: IGROV1 ovarian
NCI-H522 lung = system: NCI-H522 lung
COLO 205 colon = system: COLO 205 colon
U251 CNS = system: U251 CNS
HOP-62 NSCLC = system: HOP-62 NSCLC
SF-295 CNS = system: SF-295 CNS
TK-10 renal = system: TK-10 renal
SK-MEL-28 melanoma = system: SK-MEL-28 melanoma
MCF7 breast = system: MCF7 breast
NCI-H226 lung = system: NCI-H226 lung
BT-549 breast = system: BT-549 breast
LOX IMVI melanoma = system: LOX IMVI melanoma
ACHN renal = system: ACHN renal
M14 melanoma = system: M14 melanoma
NCI-H23 lung = system: NCI-H23 lung
OVCAR-3 ovarian = system: OVCAR-3 ovarian
MDA-N = system: MDA-N
SNB-75 CNS = system: SNB-75 CNS
T-47D breast = system: T-47D breast
OVCAR-4 ovarian = system: OVCAR-4 ovarian
SR leukemia = system: SR leukemia
EKVX NSCLC = system: EKVX NSCLC
RXF 393 renal = system: RXF 393 renal
UO-31 renal = system: UO-31 renal
UACC-62 melanoma = system: UACC-62 melanoma
HOP-92 NSCLC = system: HOP-92 NSCLC
786-0 renal = system: 786-0 renal
CAKI-1 renal = system: CAKI-1 renal
K-562 leukemia = system: K-562 leukemia
RPMI-8226 leukemia = system: RPMI-8226 leukemia
MDA-MB-231 breast = system: MDA-MB-231 breast

**Q.** What does the source list for `CCOC(=O)Cc1ccc(Nc2nc3ccccc3nc2C(=O)OCC)cc1`?
**A.** TGI (SK-OV-3 ovarian): > 100 µM; TGI (A549 NSCLC): > 100 µM; TGI (OVCAR-8 ovarian): > 100 µM; TGI (SK-MEL-2 melanoma): > 100 µM; TGI (HCT-15 colon): > 100 µM; TGI (MDA-MB-435): > 100 µM; TGI (SF-539 CNS): > 100 µM; TGI (MALME-3M melanoma): > 100 µM; TGI (SK-MEL-5 melanoma): > 100 µM; TGI (DU-145 prostate): > 100 µM; TGI (KM12 colon): > 100 µM; TGI (MOLT-4 leukemia): > 100 µM; TGI (UACC-257 melanoma): > 100 µM; TGI (CCRF-CEM leukemia): > 100 µM; TGI (NCI/ADR-RES ovarian): > 100 µM; TGI (SN12C renal): > 100 µM; TGI (NCI-H460 lung): > 100 µM; TGI (SNB-19 CNS): 41 µM; TGI (SF-268 CNS): > 100 µM; TGI (HS 578T breast): 88.9 µM; TGI (SW-620 colon): > 100 µM; TGI (HCT-116 colon): > 100 µM; TGI (A498 renal): 86.7 µM; TGI (HT29 colon): > 100 µM; TGI (PC-3 prostate): > 100 µM; TGI (OVCAR-5 ovarian): > 100 µM; TGI (HL-60(TB) leukemia): > 100 µM; TGI (IGROV1 ovarian): > 100 µM; TGI (NCI-H522 lung): > 100 µM; TGI (COLO 205 colon): > 100 µM; TGI (U251 CNS): > 100 µM; TGI (HOP-62 NSCLC): > 100 µM; TGI (SF-295 CNS): > 100 µM; TGI (TK-10 renal): > 100 µM; TGI (SK-MEL-28 melanoma): > 100 µM; TGI (MCF7 breast): > 100 µM; TGI (NCI-H226 lung): > 100 µM; TGI (BT-549 breast): > 100 µM; TGI (LOX IMVI melanoma): > 100 µM; TGI (ACHN renal): > 100 µM; TGI (M14 melanoma): > 100 µM; TGI (NCI-H23 lung): > 100 µM; TGI (OVCAR-3 ovarian): > 100 µM; TGI (MDA-N): > 100 µM; TGI (SNB-75 CNS): 38.3 µM; TGI (T-47D breast): > 100 µM; TGI (OVCAR-4 ovarian): > 100 µM; TGI (SR leukemia): > 100 µM; TGI (EKVX NSCLC): > 100 µM; TGI (RXF 393 renal): 74.4 µM; TGI (UO-31 renal): 41.3 µM; TGI (UACC-62 melanoma): > 100 µM; TGI (HOP-92 NSCLC): > 100 µM; TGI (786-0 renal): > 100 µM; TGI (CAKI-1 renal): > 100 µM

**Q.** Which results are given for `CCOC(=O)NNC(=O)NCCCCNC(=O)NNC(=O)OCC`?
**A.** TGI (SK-OV-3 ovarian): > 100 µM; TGI (A549 NSCLC): > 100 µM; TGI (OVCAR-8 ovarian): > 100 µM; TGI (K-562 leukemia): > 100 µM; TGI (SK-MEL-2 melanoma): > 100 µM; TGI (HCT-15 colon): > 100 µM; TGI (MDA-MB-435): > 100 µM; TGI (SF-539 CNS): > 100 µM; TGI (SK-MEL-5 melanoma): > 100 µM; TGI (DU-145 prostate): > 100 µM; TGI (KM12 colon): > 100 µM; TGI (MOLT-4 leukemia): > 100 µM; TGI (UACC-257 melanoma): > 100 µM; TGI (CCRF-CEM leukemia): > 100 µM; TGI (NCI/ADR-RES ovarian): > 100 µM; TGI (SN12C renal): > 100 µM; TGI (NCI-H460 lung): > 100 µM; TGI (SNB-19 CNS): > 100 µM; TGI (HS 578T breast): > 100 µM; TGI (SW-620 colon): > 100 µM; TGI (HCT-116 colon): > 100 µM; TGI (A498 renal): > 100 µM; TGI (HT29 colon): > 100 µM; TGI (PC-3 prostate): > 100 µM; TGI (RPMI-8226 leukemia): > 100 µM; TGI (OVCAR-5 ovarian): > 100 µM; TGI (HL-60(TB) leukemia): > 100 µM; TGI (IGROV1 ovarian): > 100 µM; TGI (MDA-MB-231 breast): > 100 µM; TGI (NCI-H522 lung): > 100 µM; TGI (COLO 205 colon): > 100 µM; TGI (U251 CNS): > 100 µM; TGI (HOP-62 NSCLC): > 100 µM; TGI (SF-295 CNS): > 100 µM; TGI (TK-10 renal): > 100 µM; TGI (SK-MEL-28 melanoma): > 100 µM; TGI (NCI-H226 lung): > 100 µM; TGI (BT-549 breast): > 100 µM; TGI (LOX IMVI melanoma): > 100 µM; TGI (ACHN renal): > 100 µM; TGI (M14 melanoma): > 100 µM; TGI (NCI-H23 lung): > 100 µM; TGI (OVCAR-3 ovarian): > 100 µM; TGI (MDA-N): > 100 µM; TGI (SNB-75 CNS): > 100 µM; TGI (T-47D breast): > 100 µM; TGI (EKVX NSCLC): > 100 µM; TGI (RXF 393 renal): > 100 µM; TGI (UO-31 renal): > 100 µM; TGI (UACC-62 melanoma): > 100 µM; TGI (HOP-92 NSCLC): > 100 µM; TGI (786-0 renal): > 100 µM; TGI (CAKI-1 renal): > 100 µM

Reference: PubChem BioAssay (NCI)
